Laboratory results from PubChem BioAssay AID463229 (Broad Institute, 2010).
Values joined by “and” are separate entries in the source; they are usually repeats but may differ in a detail not shown here. Equal entries are not always repeated.

System: INS-1E rat beta cells, no cytokines, CellTiter-Glo ATP, 48 h
Experiment: cytokine-free beta-cell viability effect – INS-1E rat cells, ATP luminescence, cherry pick, counter-screen for beta-cell apoptosis protection project, dose response (AID 463229)

Structure (SMILES)	AC50
CNC[C@@H](Cc1ccccc1)NC[C@@H](CC1CCCCC1)NCCCc1ccccc1	7.41 µM
Cc1nc2ccccc2n1/N=C/c1ccc([N+](=O)[O-])s1	1.92 µM
CCN1/C(=C/C=C/c2oc3ccc(-c4ccccc4)cc3[n+]2CC)Oc2ccc(-c3ccccc3)cc21	0.78 µM
O=C(N/N=C/c1ccccc1O)C1CC(=O)N(c2ccc(Cl)cc2)C1 (stereo not drawn)	17.7 µM
Cc1csc2ncnc(N3CCN(S(=O)(=O)c4cccc(C(F)(F)F)c4)CC3)c12	5.81 µM
Oc1c(C(Nc2ccccn2)c2cccnc2)cc(Cl)c2cccnc12 (stereo not drawn)	7.48 µM
Cc1ccccc1Oc1cc(NC(=O)CCCn2nc(C)c([N+](=O)[O-])c2C)cc([N+](=O)[O-])c1	6.44 µM
COc1ccc(C)cc1Nc1n[n+](-c2ccccc2)c(-c2ccc(N(C)C)cc2)s1	2.9 µM
Cc1ccc(C(=O)C[n+]2cc(-c3ccc(C)cc3)n3c2CCCCC3)cc1	1.4 µM
CCOC(=O)c1ccc(NC(=O)c2cccnc2)cc1	6.64 µM
CCN(Cc1ccccc1)C(c1cccs1)c1nnnn1C1CCCCC1 (stereo not drawn)	13.4 µM
CC(C)c1ccc(COc2ccc(C(=O)N3CCOCC3)cc2)cc1	12.9 µM
Cc1ccc([N+](=O)[O-])c(OCCN2CCCCCC2)c1	7.14 µM
COc1ccc(C2=Nn3c([n+](C)c4ccccc43)SC2)cc1	1.54 µM
CCCNC(=O)c1ccc2c(=O)c(O)c(-c3ccc(C)cc3)[nH]c2c1	8.71 µM
Cc1ccn2c(Nc3ccccc3)c(-c3ccccn3)nc2c1	7.4 µM
CCS(=O)(=O)c1ncc(Cl)c(C(=O)Nc2ccc(S(=O)(=O)N3CCC(C)CC3)cc2)n1	7.4 µM
Cc1ccc(/C=C/C(=O)c2ccc([N+](=O)[O-])o2)cc1	7.11 µM
c1ccc2c(NCCCN3CCOCC3)c3ccccc3nc2c1	6.37 µM
COc1ccc(-c2nn(-c3ccccc3)cc2C(=O)OCC(=O)c2ccc(C)c([N+](=O)[O-])c2)cc1	0.866 µM
CC1=NN(c2nc(-c3ccc(C)cc3)cs2)C(=O)C1N=Nc1ccc(C(N)=O)cc1 (stereo not drawn)	3.53 µM
Cc1cc(N2CCN(S(=O)(=O)c3ccc(Cl)cc3)CC2)c2ccccc2n1	7.4 µM
Nc1nonc1-n1nnc(C(=O)N/N=C/c2cc(Br)ccc2O)c1CNc1ccccc1	8.29 µM
COc1ccc(OC)c(NC(=O)CN(Cc2ccc(F)cc2)C2CCCCC2)c1	4.49 µM
O=C(NCc1cccnc1)c1ccc(NC(=O)c2ccc([N+](=O)[O-])cc2)cc1	0.215 µM
CC(=O)N1c2ccc(S(=O)(=O)N3CCC(C(=O)N4CCN(c5cccc(C(F)(F)F)c5)CC4)CC3)cc2CC1C (stereo not drawn)	5.82 µM

Structure (SMILES)	AC50
C/C(=N\NC(=O)c1cc(-c2cccnc2)nc2ccccc12)c1ccccc1O	5.74 µM
O=[N+]([O-])c1ccc(O)c(/C=N/Nc2ccccn2)c1	1.84 µM
Cc1cc(C(=O)N/N=C/c2cc(N=Nc3ccccc3)ccc2O)n[nH]1	3.23 µM
CN(C)c1cc[n+](Cc2c(Cl)cccc2Cl)cc1	6.3 µM
CCOc1ccc(-c2cc(C(=O)NCCCn3ccnc3)c3cc(Br)ccc3n2)cc1	12.6 µM
COc1cccc(CN2CCC(N(CCc3ccccc3)Cc3ccccc3)CC2)c1OC	14.7 µM
COc1cc(OC)nc(-n2ncc(Br)c(Br)c2=O)n1	6.66 µM
COc1cccc(/C=N/NC(=O)c2c(C)nc3ccc(Br)cn23)c1O	3.16 µM
COc1ccc(Cn2c(SCc3ccccc3C)nc3cc(OC)c(OC)cc3c2=N)cc1	7.93 µM
Cc1cccc(C(=O)Nc2ccc(C(=O)/C=C/c3cccnc3)cc2)c1	7.53 µM
COc1nc(Nc2nc3ccccc3c(=O)[nH]2)nc2ccc(C)cc12	2.31 µM
CCCCC(=O)NC(c1ccc(N(C)C)cc1)c1ccc2cccnc2c1O (stereo not drawn)	1.6 µM
Cc1cccc(N=Nc2ccc(O)c3ncccc23)c1	5 µM
CCCC(=O)NC(c1ccc2c(c1)OCO2)c1cc(Cl)c2cccnc2c1O (stereo not drawn)	4.39 µM
O=C(Nc1ccc(Cc2ccncc2)cc1)c1ccc([N+](=O)[O-])o1	10.1 µM
CCCC[C@@H](CN[C@H](C)CNC)NCC1CCC(C(C)(C)C)CC1 (stereo partly drawn)	15 µM
CCC(C)Sc1cccc(-c2nc3ccc(C)cn3c2NCc2ccccc2)c1 (stereo not drawn)	9.3 µM
CCCCCCc1cc2cc(-c3nnc(-c4ccccc4)o3)c(=O)oc2cc1O	7.25 µM
CCOc1ccccc1NC(=O)c1nc(S(=O)(=O)Cc2cccc(C)c2)ncc1Cl	7.91 µM
Cc1cc(C)nc(SCC(=O)NC2=NN=C(c3ccc(Br)cc3)CS2)n1	2.52 µM
COc1ccc2c(c1)c(/C=N/Nc1nc3ccccc3[nH]1)c(C)n2C	14.7 µM
CCOc1ccc(CN2CCN(Cc3c[nH]c4ccccc34)CC2)cc1	7.75 µM
CCOc1cccc(/C=N/Nc2ccc(S(=O)(=O)N(CC)CC)cn2)c1O	3.67 µM
COc1cccc(/C=N/Nc2ncc(C(F)(F)F)cc2Cl)c1O	4.26 µM
Cn1c(SCC(=O)N/N=C/c2ccc([N+](=O)[O-])s2)nnc1-c1ccccc1	5.11 µM
CCO[C@H]1OC(C(=O)N2CCN(Cc3ccc4c(c3)OCO4)CC2)=C[C@@H](c2csc3ccccc23)[C@@H]1CCCO	6.01 µM

Structure (SMILES)	AC50
O=C(N/N=C/c1c(O)ccc2ccccc12)c1[nH]ncc1Br	2.16 µM
CCCCCc1cc(=O)oc2c(C(CCN3CCCC(C)C3)c3ccc(OC)cc3)c(OC)cc(OC)c12 (stereo not drawn)	14.2 µM
CCn1c(NN=O)nc2ccccc21	7.85 µM
CCN(CC)C(=O)c1ccc(S(=O)(=O)N2CCC(c3nc4ccccc4s3)CC2)cc1	7.7 µM
O=S(=O)(C/C(=C/CO)S(=O)(=O)c1ccccc1)c1ccccc1	10.9 µM
Cc1nc2ccc(NC(=O)c3cc(S(=O)(=O)N(C)c4ccccc4)ccc3Cl)cc2s1	2.8 µM
c1ccc(-[n+]2nc(Nc3cccc4ccccc34)sc2-c2c3ccccc3cc3ccccc23)cc1	3.86 µM
O=C(N/N=C/c1cc(Cl)ccc1O)c1ccc(Br)cc1	4.07 µM
O=C1C(C2=NC(c3ccccn3)C3C(=O)N(c4ccc(OC(F)(F)F)cc4)C(=O)C23)=C(O)c2ccccc21 (stereo not drawn)	5.94 µM
COc1cccc(CNCCc2c[nH]c3ccccc23)c1OCc1ccccc1F	7 µM
Cc1ccc(-c2ccc(/C=C3\C(=O)ON=C3c3ccccc3)o2)c([N+](=O)[O-])c1	6.77 µM
CCOC(=O)CS(=O)(=O)c1nc(-c2ccccc2)cc(C(F)(F)F)n1	8.1 µM
N=c1ccn(Cc2ccc(Cl)cc2Cl)cc1	7.81 µM
Nc1c(C(=O)Nc2ccc(S(=O)(=O)N3CCCC3)cc2)sc2nc3ccc(OC(F)(F)F)cc3cc12	5.29 µM
Cc1cccc2sc(NNC(=O)c3ccc(S(=O)(=O)N4CC(C)CC(C)C4)cc3)nc12 (stereo not drawn)	6.52 µM
C/C(=N\Nc1nc2ccccc2[nH]1)c1ccccn1	0.56 µM
CC(C)c1ccc(/C=C(\c2nc3ccccc3[nH]2)S(=O)(=O)c2ccccc2)cc1	4.54 µM
CC(C)(C)Nc1nc(-c2ccccn2)nc2ccccc12	6.87 µM
Cc1cc(Nc2cccc(F)c2)nc(NCc2ccccc2)n1	5.15 µM
CCN(CC)c1ccc2nc3ccccc3[n+](CC)c2c1	3.19 µM
COC1=CC(=O)[C@]2(C=C1OC)OC[C@@H]1Oc3c(ccc4c3C=CC(C)(C)O4)C(=O)[C@@H]12	1.07 µM
Cc1ccc(-c2cn(-c3ccccc3)c3[n+]2CCCS3)cc1	1.97 µM and 2.98 µM
COc1ccccc1NC(=O)c1nc(S(=O)(=O)Cc2ccccc2)ncc1Cl	8.64 µM
Oc1ccc(N=Nc2ccc3c(c2)OCCO3)c2ncccc12	3.75 µM
CCOC(=O)C1=C(c2ccc(OC)cc2)C(=O)c2ccccc2C1=O	3.83 µM
CN(C)CC(C(=O)c1ccccc1)c1ccccc1 (stereo not drawn)	11.8 µM
